# Reference: patent US10947196B2, “Beta adrenergic agonist and methods of using the same” (CURASEN THERAPEUTICS, INC., priority 2019, dated 2021)
# Molecular target: β1-adrenergic receptor (Homo sapiens (Human), UniProt P08588)
# Assay: cAMP Gs dynamic HTRF assay, β1 expressing CHO cells
# Assay type: cell-based
# Conditions: Average pEC50 [Receptor subtype: B1-AR; Cell type: CHO-K1 (HitHunter)], B1-AR; CHO-K1 (HitHunter)
# Procedure: (§1) cAMP homogeneous time-resolved fluorescence (HTRF). Compound efficacy was determined using the cAMP Gs dynamic HTRF assay (Cisbio, catalog #62AM4PEC) largely following the manufacturer's instructions, also detailed below.
# (§2) Compound preparation. […] Standard serial dilution curves were 10-point, 5-fold dilutions starting from a highest concentration of 10 μM. […] Assay plates were centrifuged at 500×g for 10 seconds. Compounds and IBMX were prepared at 2× final dose to compensate for addition of cells.
# (§3) Cell preparation. 1× stimulation buffer, washing PBS (Dulbecco's phosphate-buffered saline, −Mg −Ca; Caisson Labs, catalog #PBL01), assay PBS (Dulbecco's phosphate-buffered saline, +Mg, +Ca; Caisson Labs, catalog #PBL02) and Versene (0.02% EDTA disodium salt solution in PBS without calcium or magnesium; Caisson Labs, catalog #EDL01) were pre-warmed to 37° C. Cells expressing beta-adrenergic receptor were washed in washing PBS to remove growth medium and then released from the surface by incubating with Versene for 5-10 minutes at 37° C. Cells were harvested using assay PBS, counted manually by hemocytometer or by an automated cell counter, pelleted by centrifugation (200×g, 5 minutes) and resuspended in 37° C. 1× stimulation buffer to a final density of 1.5×10^6 cells/mL. 5 μL of the suspended cell solution (7500 cell total) were added to all wells of the 384 well assay plate, the assay plate was covered with an Axygen® plate seal (Corning PCR-SP) and incubated in a humidified 37° C. environment supplemented with 5% CO2 for 30 minutes.
# (§4) HTRF reagent addition, reading and data analysis. After 30 minutes of cell stimulation with test compound, the assay plates were centrifuged at 500×g for 10 seconds, and incubation was stopped with the addition of 5 μL cAMP-D2 acceptor, diluted 1:21 in detection and lysis buffer 2 (Cisbio 62CL2FDF) was added to all cells. Subsequently, 5 μL Anti-cAMP-Eu Donor, diluted 1:21 in detection and lysis buffer 2, was added to cells. Plates were sealed and reactions gently ‘vortexed’ at 900 rpm on a Heidolph Titramax 1000 for at least 30 minutes at room temperature. Plates were centrifuged again at 500×g for 10 seconds, and HTRF was measured using a Tecan Spark plate reader at 50 flashes per well. […] Potency estimates (EC50) were derived from the four-parameter nonlinear regression of the concentration-effect curve and an estimate of relative efficacy was determined by comparing the magnitude of the test compound HTRF signal window (min−max dose) with the signal window of the full agonist control, isoproterenol.
# Chain of β1-adrenergic receptor (P08588 whole entry, species assumed): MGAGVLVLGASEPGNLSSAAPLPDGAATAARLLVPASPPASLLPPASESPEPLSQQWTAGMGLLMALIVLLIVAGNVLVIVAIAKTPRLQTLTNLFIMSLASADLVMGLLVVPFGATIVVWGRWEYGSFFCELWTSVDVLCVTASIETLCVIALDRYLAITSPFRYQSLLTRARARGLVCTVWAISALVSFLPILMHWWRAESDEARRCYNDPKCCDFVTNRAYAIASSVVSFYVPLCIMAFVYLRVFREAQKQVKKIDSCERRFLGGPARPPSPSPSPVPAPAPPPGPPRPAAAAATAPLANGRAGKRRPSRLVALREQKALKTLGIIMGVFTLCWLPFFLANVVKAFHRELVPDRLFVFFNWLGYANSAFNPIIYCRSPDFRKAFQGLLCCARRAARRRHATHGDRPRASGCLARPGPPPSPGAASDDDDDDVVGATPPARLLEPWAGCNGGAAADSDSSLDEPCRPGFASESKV
row,Structure (SMILES),EC50 [µM]
1,COc1ccc(C[C@@H](C)NC[C@H](O)c2cc(F)cnc2C)cc1 [Compound 03-260],> 1
2,COc1ccc(C[C@@H](C)NC[C@H](O)c2cnc(C)nc2C)cc1 [Compound 03-270],> 1
3,COc1ccc(C[C@@H](C)NC[C@H](O)c2ccc(NC3CC3)nc2C)cc1 [Compound 03-275],> 1
4,CNc1ccc([C@@H](O)CN[C@H](C)Cc2ccc(OC)cc2)c(C)n1 [Compound 03-277],> 1

# Same assay, conditions: B1-AR; CHO-K1 (HitHunter)
row,Structure (SMILES),Average pEC50 [Receptor subtype: B1-AR; Cell type: CHO-K1 (HitHunter)]
1,CC(C)(COc1ccccc1)NC[C@@H](O)c1cccc(C(F)(F)F)n1 [Compound 03-185],D (D < 6)
2,COc1ccc(C[C@@H](C)NC[C@H](O)c2ccc(C3CC3)nc2C)cc1 [Compound 03-269],B (B = 8-7)

# Same assay, conditions: B1-AR; CHO-K1 (HitHunter); read-out: Average pEC50 [Receptor subtype: B1-AR; Cell type: CHO-K1 (HitHunter)] (converted)
row,Structure (SMILES),EC50 [µM]
1,CC(C)c1cccc([C@H](O)CNC(C)(C)C)n1 [Compound 03-176],> 1
2,COc1ccc(CC(C)(C)NC[C@@H](O)c2cccc(C(F)(F)F)n2)cc1 [Compound 03-183],> 1
3,CC(C)(C)NC[C@@H](O)c1cccc(OC(F)(F)F)n1 [Compound 03-186],> 1
4,CC(C)(C)NC[C@H](O)c1cccc(OC(C)(C)C)n1 [Compound 03-196],0.01 to 0.1
5,CC(C)(C)NC[C@H](O)c1cccc(C2CCCC2)n1 [Compound 03-198],> 1
6,CC(C)(C)NC[C@H](O)c1cccc(-c2cnn[nH]2)n1 [Compound 03-200],0.01 to 0.1
7,CC(C)(C)NC[C@H](O)c1cccc(C2(C#N)CC2)n1 [Compound 03-206],< 0.01
8,CC(C)(C)NC[C@H](O)c1cccc(C(C)(C)C#N)n1 [Compound 03-207],< 0.01
9,CC(C)(C)NC[C@@H](O)c1ccnc(C(F)(F)F)c1 [Compound 03-211],0.1 to 1
10,CC(C)(C)NC[C@H](O)c1ccc(C#N)cn1 [Compound 03-212],> 1
11,CC(C)(C)NC[C@H](O)c1cccc(-n2ccnc2)n1 [Compound 03-213],> 1
12,CC(C)(C)NC[C@H](O)c1cccc(-n2cccn2)n1 [Compound 03-214],0.1 to 1
13,Cn1ccc(-c2cccc([C@@H](O)CNC(C)(C)C)n2)n1 [Compound 03-216],> 1
14,CC(C)(C)NC[C@@H](O)c1cccc(-c2ccncc2)n1 [Compound 03-220],> 1
15,CC(C)(C)NC[C@H](O)c1cccc(-c2ccncc2)n1 [Compound 03-221],0.01 to 0.1
16,CC(C)(C)NC[C@@H](O)c1cccc(-n2cccn2)n1 [Compound 03-225],0.1 to 1
17,Cn1ccc(-c2cccc([C@H](O)CNC(C)(C)C)n2)n1 [Compound 03-226],> 1
18,CC(C)(C)NC[C@@H](O)c1cccc(NC2CCC2)n1 [Compound 03-229],> 1
19,CC(C)(C)NC[C@H](O)c1cccc(Cl)n1 [Compound 03-231],> 1
20,CC(C)Nc1cccc([C@H](O)CNC(C)(C)C)n1 [Compound 03-232],0.01 to 0.1

# Same assay, conditions: B1-AR; CHO-K cells; read-out: Average EC50 [Receptor subtype: B1-AR; Cell type: CHO-K]
row,Structure (SMILES),EC50 [µM]
1,CC(C)c1cccc([C@H](O)CNC(C)(C)C)n1 [Compound 03-176],> 1
2,COc1ccc(CC(C)(C)NC[C@@H](O)c2cccc(C(F)(F)F)n2)cc1 [Compound 03-183],> 1
3,CC(C)(COc1ccccc1)NC[C@@H](O)c1cccc(C(F)(F)F)n1 [Compound 03-185],> 1
4,CC(C)(C)NC[C@@H](O)c1cccc(OC(F)(F)F)n1 [Compound 03-186],> 1

# Molecular target: β2 adrenergic receptor (Homo sapiens (Human), UniProt P07550)
# Sequence (P07550 whole entry, species assumed): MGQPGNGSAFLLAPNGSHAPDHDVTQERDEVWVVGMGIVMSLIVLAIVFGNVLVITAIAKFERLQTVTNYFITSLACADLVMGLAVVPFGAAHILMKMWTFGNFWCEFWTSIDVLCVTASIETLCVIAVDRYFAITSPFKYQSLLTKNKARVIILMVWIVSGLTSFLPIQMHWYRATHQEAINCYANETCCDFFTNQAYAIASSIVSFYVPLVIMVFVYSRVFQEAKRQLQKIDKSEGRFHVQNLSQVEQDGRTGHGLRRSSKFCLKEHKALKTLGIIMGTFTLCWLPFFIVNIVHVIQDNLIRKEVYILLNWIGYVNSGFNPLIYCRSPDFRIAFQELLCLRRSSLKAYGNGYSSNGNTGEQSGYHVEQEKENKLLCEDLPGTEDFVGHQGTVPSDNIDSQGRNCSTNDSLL
# Assay: cAMP Gs dynamic HTRF assay, β2 expressing CHO cells
# Assay type: cell-based
# Conditions: Average pEC50 [Receptor subtype: B2-AR; Cell type: CHO-K1 (HitHunter)], B2-AR; CHO-K1 (HitHunter)
# Procedure: as §1, §2, §3, §4
row,Structure (SMILES),EC50 [µM]
1,COc1ccc(C[C@@H](C)NC[C@H](O)c2cc(F)cnc2C)cc1 [Compound 03-260],< 0.01
2,COc1ccc(C[C@@H](C)NC[C@H](O)c2cnc(C)nc2C)cc1 [Compound 03-270],0.01 to 0.1
3,COc1ccc(C[C@@H](C)NC[C@H](O)c2ccc(NC3CC3)nc2C)cc1 [Compound 03-275],0.01 to 0.1
4,CNc1ccc([C@@H](O)CN[C@H](C)Cc2ccc(OC)cc2)c(C)n1 [Compound 03-277],< 0.01

# Same assay, conditions: B2-AR; CHO-K1 (HitHunter)
row,Structure (SMILES),Average pEC50 [Receptor subtype: B2-AR; Cell type: CHO-K1 (HitHunter)]
1,COc1ccc(C[C@@H](C)NC[C@H](O)c2ccc(C3CC3)nc2C)cc1 [Compound 03-269],A (A > 8)

# Same assay, conditions: B2-AR; CHO-K1 (HitHunter); read-out: Average pEC50 [Receptor subtype: B2-AR; Cell type: CHO-K1 (HitHunter)] (converted)
row,Structure (SMILES),EC50 [µM]
1,CC(C)c1cccc([C@H](O)CNC(C)(C)C)n1 [Compound 03-176],0.1 to 1
2,COc1ccc(CC(C)(C)NC[C@@H](O)c2cccc(C(F)(F)F)n2)cc1 [Compound 03-183],0.1 to 1
3,CC(C)(COc1ccccc1)NC[C@@H](O)c1cccc(C(F)(F)F)n1 [Compound 03-185],> 1
4,CC(C)(C)NC[C@@H](O)c1cccc(OC(F)(F)F)n1 [Compound 03-186],0.1 to 1
5,CC(C)(C)NC[C@H](O)c1cccc(OC(C)(C)C)n1 [Compound 03-196],< 0.01
6,CC(C)(C)NC[C@H](O)c1cccc(C2CCCC2)n1 [Compound 03-198],0.01 to 0.1
7,CC(C)(C)NC[C@H](O)c1cccc(-c2cnn[nH]2)n1 [Compound 03-200],< 0.01
8,CC(C)(C)NC[C@H](O)c1cccc(C2(C#N)CC2)n1 [Compound 03-206],< 0.01
9,CC(C)(C)NC[C@H](O)c1cccc(C(C)(C)C#N)n1 [Compound 03-207],< 0.01
10,CC(C)(C)NC[C@@H](O)c1ccnc(C(F)(F)F)c1 [Compound 03-211],0.1 to 1
11,CC(C)(C)NC[C@H](O)c1ccc(C#N)cn1 [Compound 03-212],0.1 to 1
12,CC(C)(C)NC[C@H](O)c1cccc(-n2ccnc2)n1 [Compound 03-213],0.01 to 0.1
13,CC(C)(C)NC[C@H](O)c1cccc(-n2cccn2)n1 [Compound 03-214],< 0.01
14,Cn1ccc(-c2cccc([C@@H](O)CNC(C)(C)C)n2)n1 [Compound 03-216],0.01 to 0.1
15,CC(C)(C)NC[C@@H](O)c1cccc(-c2ccncc2)n1 [Compound 03-220],0.01 to 0.1
16,CC(C)(C)NC[C@H](O)c1cccc(-c2ccncc2)n1 [Compound 03-221],< 0.01
17,CC(C)(C)NC[C@@H](O)c1cccc(-n2cccn2)n1 [Compound 03-225],0.1 to 1
18,Cn1ccc(-c2cccc([C@H](O)CNC(C)(C)C)n2)n1 [Compound 03-226],0.1 to 1
19,CC(C)(C)NC[C@@H](O)c1cccc(NC2CCC2)n1 [Compound 03-229],> 1
20,CC(C)(C)NC[C@H](O)c1cccc(Cl)n1 [Compound 03-231],0.01 to 0.1
21,CC(C)Nc1cccc([C@H](O)CNC(C)(C)C)n1 [Compound 03-232],0.01 to 0.1

# Same assay, conditions: B2-AR; CHO-K cells; read-out: Average EC50 [Receptor subtype: B2-AR; Cell type: CHO-K]
row,Structure (SMILES),EC50 [µM]
1,CC(C)c1cccc([C@H](O)CNC(C)(C)C)n1 [Compound 03-176],0.1 to 1
2,COc1ccc(CC(C)(C)NC[C@@H](O)c2cccc(C(F)(F)F)n2)cc1 [Compound 03-183],0.1 to 1
3,CC(C)(COc1ccccc1)NC[C@@H](O)c1cccc(C(F)(F)F)n1 [Compound 03-185],> 1
4,CC(C)(C)NC[C@@H](O)c1cccc(OC(F)(F)F)n1 [Compound 03-186],0.1 to 1
